The experiment relates to Human dermal fibroblasts from Friedreich's Ataxia patients. Put plainly: Rescue of FRDA fibroblasts stressed by BSO (Calcein AM viability). Type of experiment: cell-based. Conditions: FRDA fibroblasts GM04078, 1 mM BSO, 48 h. The procedure:
An initial screen was performed to identify compounds effective for the amelioration of redox disorders. Test samples, 4 reference compounds (idebenone, decylubiquinone, Trolox and alpha-tocopherol), and solvent controls were tested for their ability to rescue FRDA fibroblasts stressed by addition of L-buthionine-(S,R)-sulfoximine (BSO), as described in Jauslin et al., Hum. Mol. Genet. 11(24):3055 (2002), Jauslin et al., FASEB J. 17:1972-4 (2003), and International Patent Application WO 2004/003565. […] This specific BSO-mediated cell death can be prevented by administration of antioxidants or molecules involved in the antioxidant pathway, such as alpha-tocopherol, selenium, or small molecule glutathione peroxidase mimetics. However, antioxidants differ in their potency, i.e. the concentration at which they are able to rescue BSO-stressed FRDA fibroblasts.
MEM (a medium enriched in amino acids and vitamins, catalog no. 1-31F24-I) and Medium 199 (M199, catalog no. 1-21F22-I) with Earle's Balanced Salts, without phenol red, were purchased from Bioconcept. Fetal Calf Serum was obtained from PAA Laboratories. Basic fibroblast growth factor and epidermal growth factor were purchased from PeproTech. Penicillin-streptomycin-glutamine mix, L-buthionine (S,R)-sulfoximine, (+)-alpha-tocopherol, decylubiquinone, and insulin from bovine pancreas were purchased from Sigma. Trolox (6-Hydroxy-2,5,7,8-tetramethylchromane-2-carboxylic acid) was obtained from Fluka. Idebenone was obtained from Chemo Iberica. Calcein AM was purchased from Anaspec. Cell culture medium was made by combining 125 ml M199 EBS, 50 ml Fetal Calf Serum, 100 U/ml penicillin, 100 microgram/ml streptomycin, 2 mM glutamine, 10 microgram/ml insulin, 10 ng/ml EGF, and 10 ng/ml bFGF; MEM EBS was added to make the volume up to 500 ml. A 10 mM BSO solution was prepared by dissolving 444 mg BSO in 200 ml of medium (Invitrogen, Carlsbad, Ca.) with subsequent filter-sterilization. During the course of the experiments, this solution was stored at +4° C. The cells were obtained from the Coriell Cell Repositories (Camden, N.J.; repository number GM04078) and grown in 10 cm tissue culture plates. Every third day, they were split at a 1:3 ratio.
The test samples were supplied in 1.5 ml glass vials. The compounds were diluted with DMSO, ethanol or PBS to result in a 5 mM stock solution. Once dissolved, they were stored at −20° C. Reference antioxidants (idebenone, decylubiquinone, alpha-tocopherol and Trolox) were dissolved in DMSO.
Test samples were screened according to the following protocol:
A culture with FRDA fibroblasts was started from a 1 ml vial with approximately 500,000 cells stored in liquid nitrogen. Cells were propagated in 10 cm cell culture dishes by splitting every third day in a ratio of 1:3 until nine plates were available. Once confluent, fibroblasts were harvested. For 54 micro titer plates (96 well-MTP) a total of 14.3 million cells (passage eight) were re-suspended in 480 ml medium, corresponding to 100 microliters medium with 3,000 cells/well. The remaining cells were distributed in 10 cm cell culture plates (500,000 cells/plate) for propagation. The plates were incubated overnight at 37° C. in a atmosphere with 95% humidity and 5% CO2 to allow attachment of the cells to the culture plate.
10% DMSO (242.5 microliters) was added to a well of the microtiter plate. The test compounds were unfrozen, and 7.5 microliters of a 5 mM stock solution was dissolved in the well containing 242.5 microliters of 10% DMSO, resulting in a 150 micromolar master solution. Serial dilutions from the master solution were made. The period between the single dilution steps was kept as short as possible (generally less than 30 seconds). At least 4 hours after attachment into MTP, cells were then treated with the various compound dilutions.
Plates were kept overnight in the cell culture incubator. […]

[1] abbreviates: Homo sapiens, average, compounds of the invention, read-out: Ec50 Average.

The values below come from patent publication US9868711B2, “Phenazine-3-one and phenothiazine-3-one derivatives for treatment of oxidative stress disorders” (BioElectron Technology Corporation, priority 2013, dated 2018).

Each structure is given as a SMILES string. Read-outs that look alike come from different tables or passages of the source.

On to `Cc1cc(=O)c(C)c2sc3ccccc3nc1-2` [Compound 1], for which, under setting [1], the EC50 (as a rule, the concentration that produces a half-maximal response) is 3 nM.

Turning to `CN(C)c1ccc2nc3ccc(=O)cc-3sc2c1` [Compound 2], the EC50 under setting [1] was 3 nM. The same measure, in the same setting: next, `O=c1ccc2nc3ccc(C(F)(F)F)cc3sc-2c1` [Compound 3]: 28 nM.

As for `COC1=C(OC)C(=O)C(CCCCCCCCCCO)=C(C)C1=O` [Idebenone], under “Homo sapiens, third of three experiments, read-out: EC50 Value 3”, the EC50 was 1000 nM. In the case of `Cc1c(C)c2c(c(C)c1O)CCC(C)(C(=O)O)O2` (stereo not drawn) [Trolox, 6-Hydroxy-2,5,7,8-tetramethylchromane-2-carboxylic acid], the EC50 (Homo sapiens, first of three experiments, read-out: EC50 Value 1) is 9000 nM. Turning to `Cc1c(C)c2c(c(C)c1O)CC[C@@](C)(CCC[C@H](C)CCC[C@H](C)CCCC(C)C)O2` [alpha-tocopherol], the EC50 is 300 nM (average of three values, control compounds, read-out: EC50 Average); 400 nM (first of three experiments, read-out: EC50 Value 1); 150 nM (second of three experiments, read-out: EC50 Value 2); 350 nM (third of three experiments, read-out: EC50 Value 3).
